Converted amounts (≈) assume the structure as drawn. Like-named read-outs stand apart in the source and are kept apart here.
Assays:
Format in all cases: cell-based
P. aeruginosa ATCC 27853 = test: MIC, Gram-negative bacteria: P. aeruginosa ATCC 27853; conditions: Pseudomonas aeruginosa, ATCC27853, read-out: Minimal Inhibitory Concentration (MIC) P. aeruginosa ATCC 27853
S. pneumoniae = test: MIC, Gram-positive bacteria: S. pneumoniae; conditions: Streptococcus pneumoniae, column 10, read-out: Minimal Inhibitory Concentration (MIC) S. pneumoniae
E. faecalis = test: MIC, Gram-positive bacteria: E. faecalis; conditions: Enterococcus faecalis, column 1, read-out: Minimal Inhibitory Concentration (MIC) E. faecalis
[1] = tested on: K. pneumoniae multidrug-resistant; test: MIC, Gram-negative bacteria: K. pneumoniae multidrug-resistant; conditions: Klebsiella pneumoniae, read-out: Minimal Inhibitory Concentration (MIC) K. pneumoniae multidrug-resistant
E. faecium ATCC 35667 = test: MIC, Gram-positive bacteria: E. faecium ATCC 35667; conditions: Enterococcus faecium, ATCC35667, column 2, read-out: Minimal Inhibitory Concentration (MIC) E. faecium ATCC 35667
[2] = tested on: P. aeruginosa MDR clinical isolate; test: MIC, Gram-negative bacteria: P. aeruginosa MDR clinical isolate; conditions: Pseudomonas aeruginosa, read-out: Minimal Inhibitory Concentration (MIC) P. aeruginosa MDR clinical isolate
[3] = tested on: S. aureus Linezolid-resistant; cfr; test: MIC, Gram-positive bacteria: S. aureus Linezolid-resistant; cfr; conditions: Staphylococcus aureus, column 9, read-out: Minimal Inhibitory Concentration (MIC) S. aureus Linezolid-resistant
[4] = tested on: S. aureus Vat A streptogramin; test: MIC, Gram-positive bacteria: S. aureus Vat A streptogramin; conditions: Staphylococcus aureus; Gram-positive; column 5; read-out: Minimal Inhibitory Concentration (MIC) S. aureus Vat A streptogramin
Gram-Negative Organisms = test: microbe, parasite or virus in culture
H. influenzae ATCC 49247 = test: MIC, Gram-negative bacteria: H. influenzae ATCC 49247; conditions: Haemophilus influenzae, ATCC49247, read-out: Minimal Inhibitory Concentration (MIC) H. influenzae ATCC 49247
S. aureus = test: MIC, Gram-positive bacteria: S. aureus (strains not named); conditions: Staphylococcus aureus, read-out: Minimal Inhibitory Concentration (MIC) S. aureus
E. faecium VRE; vanA = test: MIC, Gram-positive bacteria: E. faecium VRE; vanA; conditions: Enterococcus faecium, column 3, read-out: Minimal Inhibitory Concentration (MIC) E. faecium VRE
[5] = Acinetobacter baumannii, ATCC19606, read-out: Minimal Inhibitory Concentration (MIC), A. baumannii ATCC 19606
[6] = Escherichia coli, ATCC25922, read-out: Minimal Inhibitory Concentration (MIC), E. coli ATCC 25922
[7] = Escherichia coli, read-out: Minimal Inhibitory Concentration (MIC), E. coli BAS2006, OMP C, OMP F
[8] = Escherichia coli, read-out: Minimal Inhibitory Concentration (MIC), E. coli olC efflux defective
[9] = Escherichia coli, read-out: Minimal Inhibitory Concentration (MIC), E. coli permeability mutant BAS1314, IMP4213ZAB::TN10
[10] = Escherichia coli, read-out: Minimal Inhibitory Concentration (MIC), E. coli ΔompC768, KanR insert
[11] = Klebsiella pneumoniae, ATCC43816, read-out: Minimal Inhibitory Concentration (MIC), K. pneumoniae ATCC 43816
[12] = first unnamed S. aureus column (c4)
[13] = fourth unnamed S. aureus column (c8)
[14] = second unnamed S. aureus column (c6)
[15] = third unnamed S. aureus column (c7)

| Compound | MIC (P. aeruginosa ATCC 27853) [µg/mL] | MIC (S. pneumoniae) [µg/mL] | MIC (E. faecalis) [µg/mL] | MIC [1] [µg/mL] | MIC (E. faecium ATCC 35667) [µg/mL] | MIC [2] [µg/mL] | MIC [3] [µg/mL] | MIC [4] [µg/mL] | MIC (Gram-Negative Organisms; [5]) [µg/mL] | MIC (Gram-Negative Organisms; [6]) [µg/mL] | MIC (Gram-Negative Organisms; [7]) [µg/mL] | MIC (Gram-Negative Organisms; [8]) [µg/mL] | MIC (Gram-Negative Organisms; [9]) [µg/mL] | MIC (Gram-Negative Organisms; [11]) [µg/mL] | MIC (H. influenzae ATCC 49247) [µg/mL] | MIC (S. aureus; [12]) [µg/mL] | MIC (S. aureus; [13]) [µg/mL] | MIC (S. aureus; [14]) [µg/mL] | MIC (S. aureus; [15]) [µg/mL] | MIC (E. faecium VRE; vanA) [µg/mL] | other results |
| --- | --- | --- | --- | --- | --- | --- | --- | --- | --- | --- | --- | --- | --- | --- | --- | --- | --- | --- | --- | --- | --- |
| CC1=C\[C@@H](O)CC(=O)Cc2nc(co2)C(=O)N2CCC[C@@H]2C(=O)O[C@H]([C@H](C)COC(=O)Nc2ccc(C(F)(F)F)cc2)[C@H](C)/C=C/C(=O)NC\C=C\1 [SA0110193] | > 64 | > 64 | > 64 | > 64 | 8 (≈ 10.9 µM) | > 64 | > 64 | 16 (≈ 21.9 µM) | > 64 | > 64 | > 64 | 8 (≈ 10.9 µM) | 4 (≈ 5.47 µM) | > 64 | > 64 | 8 (≈ 10.9 µM) | 8 (≈ 10.9 µM) | 8 (≈ 10.9 µM) | 16 (≈ 21.9 µM) | > 64 | MIC (Gram-Negative Organisms; [10]): > 64 µg/mL |
| CC1=C\[C@@H](O)CC(=O)Cc2nc(co2)C(=O)N2CCC[C@@H]2C(=O)O[C@H]([C@H](C)COC(=O)Nc2ccccc2)[C@H](C)/C=C/C(=O)NC\C=C\1 [SA0110196] | > 64 | 32 (≈ 48.3 µM) | > 64 | > 64 | 16 (≈ 24.1 µM) | > 64 | > 64 | > 64 | > 64 | > 64 | 32 (≈ 48.3 µM) | 2 (≈ 3.02 µM) | 8 (≈ 12.1 µM) | > 64 | 16 (≈ 24.1 µM) | 32 (≈ 48.3 µM) | 16 (≈ 24.1 µM) | 32 (≈ 48.3 µM) | 64 (≈ 96.6 µM) | 64 (≈ 96.6 µM) | MIC (Gram-Negative Organisms; [10]): > 64 µg/mL |
| CC1=C\[C@@H](O)C[C@@H](F)Cc2nc(cs2)C(=O)N2CCC[C@@H]2C(=O)O[C@H](C(C)C)[C@H](C)/C=C/C(=O)NC\C=C\1 [SA0110279] | > 64 | 1 (≈ 1.83 µM) | > 64 | > 64 | 0.5 (≈ 0.913 µM) | > 64 | > 64 | 8 (≈ 14.6 µM) | > 64 | 32 (≈ 58.4 µM) | 0.25 (≈ 0.456 µM) | 1 (≈ 1.83 µM) | < 0.06 | > 64 | 0.25 (≈ 0.456 µM) | 0.5 (≈ 0.913 µM) | 0.5 (≈ 0.913 µM) | 0.5 (≈ 0.913 µM) | 1 (≈ 1.83 µM) | 1 (≈ 1.83 µM) | MIC (Gram-Negative Organisms; [10]): 32 µg/mL (≈ 58.4 µM) |
| CC1=C\[C@@H](O)CC(=O)Cc2nc(co2)C(=O)N2CCC[C@@H]2C(=O)O[C@H]([C@H](C)COC(=O)Nc2ccccn2)[C@H](C)/C=C/C(=O)NC\C=C\1 [SA0110222] | > 64 | 32 (≈ 48.2 µM) | > 64 | > 64 | 32 (≈ 48.2 µM) | > 64 | > 64 | > 64 | > 64 | > 64 | 64 (≈ 96.4 µM) | 4 (≈ 6.03 µM) | 16 (≈ 24.1 µM) | > 64 | 16 (≈ 24.1 µM) | > 64 | 64 (≈ 96.4 µM) | > 64 | > 64 | 64 (≈ 96.4 µM) | MIC (Gram-Negative Organisms; [10]): > 64 µg/mL |
| CC1=C\[C@@H](O)CC(=O)Cc2nc(co2)C(=O)N2CCC[C@@H]2C(=O)O[C@H]([C@@H](C)CN2CCC(N(C)C)CC2)[C@H](C)/C=C/C(=O)NC\C=C\1 [SA0110252] | > 64 | > 64 | > 64 | > 64 | > 64 | > 64 | > 64 | > 64 | > 64 | > 64 | > 64 | > 64 | > 64 | > 64 | > 64 | > 64 | > 64 | > 64 | > 64 | > 64 | MIC (Gram-Negative Organisms; [10]): > 64 µg/mL |
| CC1=C\[C@@H](O)CC(=O)Cc2nc(co2)C(=O)N2CCC[C@@H]2C(=O)O[C@H]([C@H](C)COC(=O)Nc2ccc3ccccc3n2)[C@H](C)/C=C/C(=O)NC\C=C\1 [SA0110223] | > 64 | 32 (≈ 44.8 µM) | > 64 | > 64 | 4 (≈ 5.6 µM) | > 64 | > 64 | 32 (≈ 44.8 µM) | > 64 | > 64 | 16 (≈ 22.4 µM) | 2 (≈ 2.8 µM) | 2 (≈ 2.8 µM) | > 64 | 8 (≈ 11.2 µM) | 8 (≈ 11.2 µM) | 4 (≈ 5.6 µM) | 8 (≈ 11.2 µM) | 16 (≈ 22.4 µM) | 16 (≈ 22.4 µM) | MIC (Gram-Negative Organisms; [10]): > 64 µg/mL |
| CC1=C\[C@@H](O)CC(N)Cc2nc(cs2)C(=O)N2CCC[C@@H]2C(=O)O[C@H](C(C)C)[C@H](C)/C=C/C(=O)NC\C=C\1 (some centres unmarked) [SA0110268] | > 64 | 32 (≈ 58.7 µM) | > 64 | > 64 | 64 (≈ 117 µM) | > 64 | > 64 | > 64 | > 64 | > 64 | 16 (≈ 29.4 µM) | 2 (≈ 3.67 µM) | 2 (≈ 3.67 µM) | > 64 | 64 (≈ 117 µM) | > 64 | > 64 | > 64 | > 64 | > 64 | MIC (Gram-Negative Organisms; [10]): > 64 µg/mL |
| CC1=C\[C@@H](O)CC(=O)Cc2nc(co2)C(=O)N2CCC[C@@H]2C(=O)O[C@H]([C@@H](C)COC(=O)Nc2ccc(OC(F)(F)F)cc2)[C@H](C)/C=C/C(=O)NC\C=C\1 [SA0110041] | > 64 | > 64 | > 64 | > 64 | 8 (≈ 10.7 µM) | > 64 | > 64 | > 64 | > 64 | > 64 | > 64 | 8 (≈ 10.7 µM) | 8 (≈ 10.7 µM) | > 64 | > 64 | > 64 | 32 (≈ 42.9 µM) | > 64 | > 64 | > 64 | – |

— patent US20200325177A1, “METHODS OF MAKING STREPTOGRAMIN COMPOSITIONS AND THE USE THEREOF” (THE REGENTS OF THE UNIVERSITY OF CALIFORNIA, priority 2017, published 2020)
